Laboratory results taken from ChEMBL document CHEMBL5512613, “Design and synthesis of novel 3-amino-5-phenylpyrazole derivatives as tubulin polymerization inhibitors targeting the colchicine-binding site” (Eur J Med Chem, 2024).
The source made the active and inactive calls. No cut-off for these calls is given here.

Legend:
[1] = system: MCF7; assay: Induction of cell cycle arrest in human MCF7 cells assessed as proportion of cells at G1 phase at 25 nM incubated for 24 hrs by PI staining based flow cytometry (reference value: 64.5%); type: functional
[2] = system: MCF7; assay: Antiproliferative activity against human MCF7 cells assessed as inhibition of cell growth incubated for 48 hrs by MTT assay; type: functional, cell-based; conditions: MCF7, 48 h
[3] = Cytotoxicity against human L02 cells assessed as inhibition of cell growth incubated for 48 hrs by MTT assay; type: toxicity, cell-based
[4] = system: HUVEC; assay: Anti-vascular activity in human HUVEC cells assessed as reduction in length of capillary-like tubules incubated for 6 hrs by Matrigel based inverted fluorescence microscopy; type: functional, cell-based; conditions: dose 6.25-50 nM
[5] = biological target: Tubulin (Homo sapiens) (UniProt P68371+Q9H4B7+P0DPH7+P68366+Q13509+Q71U36+P04350+Q3ZCM7+P07437+P68363+Q9BQE3+Q6PEY2+Q13885+Q9BVA1+Q9BUF5); assay: Displacement of [3H]colchicine from tubulin (unknown origin) at 1 uM incubated for 2 hrs by scinitillation proximity assay; type: protein-complex assay
[6] = biological target: Tubulin beta (Homo sapiens) (UniProt P68371+Q9H4B7+Q13509+P04350+Q3ZCM7+P07437+Q13885+Q9BVA1+Q9BUF5+A6NNZ2); assay: Binding affinity to beta-tubulin (unknown origin) assessed as decrease in beta-tubulin/EBI adduct formation at 0.2 to 25 uM incubated for 2 hrs followed by incubation with EBI for 1.5 hrs by EBI competition based western blot analysis; type: protein assay; conditions: dose 0.2-25 µM, time 3.5 hrs
[7] = system: MCF7; assay: Induction of cell cycle arrest in human MCF7 cells assessed as proportion of cells at S phase at 12.5 nM incubated for 24 hrs by PI staining based flow cytometry (reference value: 21.1%); type: functional
[8] = system: MCF7; assay: Induction of cell cycle arrest in human MCF7 cells assessed as proportion of cells at S phase at 6.25 nM incubated for 24 hrs by PI staining based flow cytometry (reference value: 21.1%); type: functional
[9] = system: MCF7; assay: Induction of cell cycle arrest in human MCF7 cells assessed as increase in CDK7 protein expression at 6.25 to 50 nM incubated for 24 hrs by western blot analysis; type: functional, cell-based; conditions: dose 6.25-50 nM
[10] = system: MCF7; assay: Induction of cell cycle arrest in human MCF7 cells assessed as increase in Cdc25c protein expression at 6.25 to 50 nM incubated for 24 hrs by western blot analysis; type: functional, cell-based; conditions: dose 6.25-50 nM
[11] = system: MCF7; assay: Induction of cell cycle arrest in human MCF7 cells assessed as proportion of cells at G1 phase at 25 nM incubated for 6 hrs by PI staining based flow cytometry (reference value: 64.5%); type: functional
[12] = system: HUVEC; assay: Anti-vascular activity in human HUVEC cells assessed as reduction in number of loops formed at 6.25 to 50 nM incubated for 6 hrs by Matrigel based inverted fluorescence microscopy; type: functional, cell-based; conditions: dose 6.25-50 nM
[13] = system: MCF7; assay: Induction of apoptosis in human MCF7 cells assessed as increase in Bax protein expression at 6.25 to 50 nM incubated for 24 hrs by western blot analysis; type: functional, cell-based; conditions: dose 6.25-50 nM

IC50 [2]: 40 nM | inhibition [5]: 68.4% | Activity [6]: Active
SMILES: COc1cc(C(=O)n2nc(N)cc2-c2ccc(C)cc2)cc(OC)c1OC
Activity [1]: 7.65% | IC50 at 48 h [3]: 2730 nM | Activity [4]: Dose-Dependent Effect | Activity [7]: 15.7% | Activity [8]: 18.4% | Activity [9]: Active | Activity [10]: Active | Activity [11]: 31.3% | Activity [12]: Active | Activity [13]: Active
